Laboratory results taken from the METLIN SMRT retention time set (Domingo-Almenara et al. 2019).

Assay: gradient 5% acetonitrile 3 min, to 50% in 2 min, to 85% in 15 min, held 3 min, 100 µL/min
Details: column: Zorbax Extend-C18 2.1 x 50 mm; eluents: water / acetonitrile, 0.1% formic acid
Outline: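 Retention times come from adduct peaks that were picked computationally and then checked by hand. The standards, pure and pooled in mixtures of ~100 molecules, were run on a Zorbax Extend-C18 column (2.1 × 50 mm, 1.8 μm) at 100 μL/min with water and acetonitrile, each with 0.1% formic acid. Detection was by quadrupole time-of-flight mass spectrometry in positive and negative ionization mode, with a dead volume of 40 μL and a dwell volume of 900 μL.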

| Structure (SMILES) | RP-LC retention time |
| --- | --- |
| CCS(=O)(=O)c1nc2ccc(NS(=O)(=O)c3cc(Cl)ccc3OC)cc2s1 | 914 s |
| Cc1ccc(-c2nnc(Cc3nc(-c4cccc(C(F)(F)F)c4)no3)o2)cc1C | 1220 s |
| Cn1nnc2cc(C(=O)NCc3ccc4c(c3)OCO4)ccc21 | 686 s |
| O=C(Nc1cccnc1)c1cccc([N+](=O)[O-])c1 | 661 s |
| O=C(Nc1ccc(F)cc1Cl)c1cnc(-c2ccc(F)cc2)nc1-c1ccncc1 | 951 s |
| CCn1cc(-c2nc(-c3ccc(OC(C)C)cc3)no2)c(=O)c2cc(F)c(N3CCOCC3)cc21 | 1050 s |
| CC1CCCN(CCCNC(=O)c2cc(=O)n3c(nc4ccccc43)s2)C1 (centres undefined) | 638 s |
| Cc1cc(C)c(S(=O)(=O)N2CCc3nn(CC(C)C)c(=O)n3CC2)c(C)c1 | 664 s |
| Cc1cccc(NC(=O)/C=C/c2ccc([N+](=O)[O-])cc2)c1 | 878 s |
| Cc1cc(-c2nnc(-c3ccco3)o2)c(C)n1CC(=O)NCc1ccccc1Cl | 863 s |
| CCN(CC)c1nc(C(=O)Nc2ccccc2OC)nc2nc(C)cc(C)c12 | 732 s |
| Cc1nc(-c2cn(C(C)C)c3ncccc23)sc1C(=O)Nc1ccc2c(c1)OCCO2 | 1010 s |
| CCN(CC)C(=O)c1ccc2c(c1)N(CC(=O)NC1CCCCC1)C(=O)C1CCCCN21 (centres undefined) | 838 s |
| O=C(Cn1c(=O)oc2ccccc21)NCC12CCCC=C1NC(=O)CC2 (centres undefined) | 678 s |
| CCc1nc(OCC(=O)NCc2ccc(C)cc2)c2c(C)c(C)oc2n1 | 999 s |
| COC1CCC12CCN(Cc1ccccc1C#N)CC2 (centres undefined) | 603 s |
| CN(CCNC(=O)C1CCc2nc(N3CCOCC3)ncc2C1)C1CCCCC1 (centres undefined) | 586 s |
| Cc1ccc2oc(C(=O)NCc3ccc4c(c3)OCO4)cc2n1 | 635 s |
| CC(=O)OC1CCN(C(=O)c2ccc(C#N)cc2)CC1 | 698 s |
| CC(C)NC(=O)c1csc(N2CCCCC2)n1 | 919 s |
| CCn1cnc2ccc(-c3noc(-c4ccc(C)cc4)n3)cc21 | 832 s |
| O=C(Oc1cccc(Oc2ccccc2)c1)N1CCOCC1 | 889 s |
| CCc1ccc(-c2cc(C(F)(F)F)on2)cc1S(=O)(=O)Nc1ccc(S(N)(=O)=O)cc1 | 947 s |
| Cc1ccc(CNC(=O)CN2CCN(C(=O)Nc3ccc(F)cc3)CC2=O)o1 | 695 s |
| CCOc1cccc(CNC(=O)CCc2nnc3c4cc(-c5ccccc5)nn4ccn23)c1 | 766 s |
| O=C(COc1ccccc1)N1CCN(Cc2ccccc2)c2ncccc21 | 884 s |
| CCNC(=O)CN1c2ccc(F)cc2-c2ccccc2S1(=O)=O | 786 s |

| Structure (SMILES) | RP-LC retention time |
| --- | --- |
| CC(C)c1cc(C(=O)Nc2ccccc2)no1 | 969 s |
| COc1cccc2cc(C(=O)N3CC(c4nc(C5CC5)no4)C3)oc12 | 788 s |
| CSc1ccc(-c2nc3ccccn3c2Nc2ccc(C)cc2)cc1 | 781 s |
| COc1cccc(CNc2nc3ccncc3n(C(C)C)c2=O)c1OC | 644 s |
| CC(C)n1nc(CNC(=O)C2CCN(S(=O)(=O)c3ccccc3)CC2)c2ccccc21 | 918 s |
| COCCN1C(=O)c2cccn2CC1CNC(=O)c1ccc(Cc2c(C)noc2C)o1 (centres undefined) | 679 s |
| CN(C)S(=O)(=O)N(CC(=O)Nc1ccc(F)c(Cl)c1)c1ccccc1 | 986 s |
| Cc1ccccc1CNC(=O)c1nnc(-c2ccc(S(=O)(=O)N(C)C)cc2)o1 | 874 s |
| Cc1cc(C)cc(C(=O)N2CCCC(C(=O)Nc3ccc(Br)c(C)c3)C2)c1 (centres undefined) | 1110 s |
| NC(=O)Cc1csc(SCC(=O)c2ccc3c(c2)OCO3)n1 | 648 s |
| Cc1cccc(S(=O)(=O)N2CCCC(Cn3c(C)nc4cccnc43)C2)c1 (centres undefined) | 821 s |
| Cc1cnn(Cc2c(C(=O)N3C[C@@H](C(N)=O)[C@H](c4n[nH]c(C)n4)C3)noc2C)c1 | 590 s |
| Cc1cc(-c2c(C)sc(C)c2S(=O)(=O)Nc2ccc(C(C)C)cc2)n[nH]1 | 1200 s |
| NS(=O)(=O)c1ccc(NC(=O)Cc2csc3nc(-c4ccccc4)cn23)cc1 | 650 s |
| O=C(Cc1nnc(-c2ccc3ncccc3c2)o1)NCc1cccc(Cl)c1 | 722 s |
| Cc1ccc(NC(=O)c2cc(C(C)C)n(C3CCS(=O)(=O)C3)n2)cc1C (centres undefined) | 949 s |
| CCOC(=O)CCC(=O)N(Cc1ccsc1)CC(F)(F)F | 839 s |
| Cc1ccn2c(NC(=O)/C=C/c3ccccc3)c(-c3ccccc3)nc2c1 | 703 s |
| CCOc1ccc(CCNC(=O)Cn2ncc3ccccc32)cc1OCC | 845 s |
| COc1ccccc1Nc1c(-c2ccc(Cl)cc2)nc2cnccn12 | 1020 s |
| Cc1c(C(=O)N2CCSCC2)cnn1-c1ncccc1-c1nc(C2CC2)no1 | 740 s |
| CCc1cccc(NC(=O)N2CCC(CC(=O)N3CCCCC3)CC2)c1 | 751 s |
| CCn1c(=O)c(C)nc2cc(-c3noc(-c4cccc(N(C)C)c4)n3)ccc21 | 1170 s |
| Cc1cccc(-c2noc(Cn3ccn(-c4cc(C)cc(C)c4)c(=O)c3=O)n2)c1 | 925 s |
| Cc1noc([C@@H]2CN(Cc3ccc(F)cc3Cl)C[C@H]2CO)n1 | 600 s |
| CCC(C(=O)NCC(=O)Nc1nc2ccccc2[nH]1)c1ccccc1 (centres undefined) | 654 s |
| CCCN(C)C[C@@H]1CC(F)(F)CN1C1CCN(S(=O)(=O)c2ccccc2F)CC1 | 712 s |

Further lines, results first:

| RP-LC retention time | Structure (SMILES) |
| --- | --- |
| 917 s | Cc1ccc(CNC(=O)CN2C(=O)CCc3cc(Br)ccc32)cc1 |
| 645 s | CCOc1ccc(-c2ccc(=O)n(CCNC(=O)c3cn(C)nc3OC)n2)cc1 |
| 880 s | COc1ccc(OC)c(NC(=O)N2CCN(c3ccc(=O)n(-c4ccc(C)c(C)c4)n3)CC2)c1 |
| 828 s | COc1ccccc1-c1nnc(-c2cc(S(=O)(=O)N3CCOCC3)ccc2F)o1 |
| 1110 s | Cc1ccc(CNC(=O)Cn2nc(N3CCCC(C)C3)c3ccccc3c2=O)cc1 (centres undefined) |
| 713 s | Cc1noc(CN2CCN(C3CCN(Cc4cc(Cl)ccc4F)C3)C2=O)n1 (centres undefined) |
| 617 s | Cc1cc(N2CCN(C(=O)Nc3ccccc3F)CC2)nc(N2CCOCC2)n1 |
| 910 s | CC1CCN(S(=O)(=O)c2ccc(-c3nnc(C(=O)NCc4cccs4)o3)cc2)CC1 |
| 754 s | Cc1ccc2c(c1)C1CC(C)(O2)N(c2cccc(C(=O)N3CCCC3)c2)C(=O)N1 (centres undefined) |
| 881 s | COc1cccc(NS(=O)(=O)c2ccc(-c3nnc(C4CCC4)o3)o2)c1 |
| 668 s | Nc1cc(C2CCN(C(=O)Nc3ccc(F)cc3)CC2)no1 |
| 721 s | O=C(N[C@H]1C[C@@H]2C[C@H]1N(C(=O)c1ccc3c(c1)OCO3)C2)c1ccccc1 |
| 961 s | O=S(=O)(c1ccc(Cl)cc1)N1CCC(c2nc(-c3cccnc3)no2)CC1 |
| 1050 s | O=C(NCc1ccc(Br)cc1)C1CCCN(c2nccnc2Oc2ccccc2)C1 (centres undefined) |
| 738 s | Cc1cc(NC(=O)CN2C(=O)C3CCCCN3c3ccc(C(=O)N4CCCC4)cc32)no1 (centres undefined) |
| 792 s | COc1ccc(-c2noc(C3CCCN3C(=O)CNC(=O)c3ccccc3)n2)cc1 (centres undefined) |
| 993 s | CCn1c(=O)c(N2CCC(NC(=O)Nc3cc(C)ccc3C)CC2)nc2cccnc21 |
| 1060 s | CCn1c(=O)c(N2CCN(C(=O)Nc3ccc(Br)c(C)c3)CC2)nc2cccnc21 |

| RP-LC retention time | Structure (SMILES) |
| --- | --- |
| 1020 s | CCn1cc(C(=O)NCCC2=CCCCC2)c2nn(-c3ccccc3)c(=O)c-2c1 |
| 651 s | O=C(NC1CCN(c2nnc3ccc(Cl)cn23)CC1)c1ccc(N2CCCC2=O)cc1 |
| 561 s | CC(C)C(=O)NCCN1CCN(c2ccc(F)cc2)CC1 |
| 779 s | COc1ccc(C(C)NC(=O)C2=C3CCCN3c3ccccc3S2(=O)=O)cc1OC (centres undefined) |
| 938 s | Cc1sc(NC(=O)c2ccc(S(=O)(=O)N(C)C)cc2)nc1-c1ccc2c(c1)N(C)C(=O)CO2 |
| 738 s | COCc1nncn1C1CCN(S(=O)(=O)c2cccc(Cl)c2)CC1 |
| 714 s | O=C(Nc1nnc(C2CCCCC2)o1)c1c[nH]c2ccccc12 |
| 644 s | COc1ccc(C(O)CN2CCN(c3ccc(C)cc3)CC2)cc1OC (centres undefined) |
| 855 s | COc1ccc(C)cc1NC(=O)NC1CCN(c2ccc(F)cc2)C1=O (centres undefined) |
| 767 s | O=C(Nc1nnc(C2CC(=O)N(c3ccccc3)C2)o1)c1cccc(Cl)c1 (centres undefined) |
| 775 s | c1cc2nnc(C3CC3)n2nc1N1CCCC1 |
| 747 s | COc1cccc(NC(=O)C2CCN(S(=O)(=O)c3cc(C(=O)N4CCOCC4)cs3)CC2)c1 |
| 1070 s | COc1ccc(-c2ncc3c(n2)CCN(S(=O)(=O)c2ccccc2Cl)C3)cc1 |
| 662 s | CCOc1ccc(NC(=O)c2cnc(N3CCN(C4CCCCC4)CC3)nc2N)cc1 |
| 681 s | COc1cccc(Nc2c(-c3ccc(C(=O)O)cc3)nc3cnccn23)c1 |
| 541 s | CCCN1CCN(CCCNC(=O)C2CCN(Cc3cn(C)c4ccc(Cl)cc34)CC2)CC1 |
| 1090 s | CC(C)CCNC(=O)C1CCN(c2nccn3nc(-c4cccs4)cc23)CC1 |
